Laboratory results: US10793568B2, “Hormone receptor modulators for treating metabolic conditions and disorders” (ARDELYX, INC., priority 2016, dated 2020)

Columns and labels:
[1] = molecular target: human Farnesoid X receptor ligand-binding domain/Gal4 DNA binding domain chimera (Homo sapiens (Human), UniProt Q96RI1); assay: Cell-based assay of FXR activation (FXR-UAS-bla HEK 293T beta-lactamase reporter); details: cellular FXR beta-lactamase reporter assay; for Emax: HEK-293T, extent of activation relative to GW4064, read-out: % Efficacy; for EC50: FXR-UAS-bla HEK 293T cells, 16 h, pEC50 = -log EC50
human Farnesoid X receptor ligand-binding domain/Gal4 DNA binding domain chimera, sequence (Q96RI1 262-486, stated change not applied): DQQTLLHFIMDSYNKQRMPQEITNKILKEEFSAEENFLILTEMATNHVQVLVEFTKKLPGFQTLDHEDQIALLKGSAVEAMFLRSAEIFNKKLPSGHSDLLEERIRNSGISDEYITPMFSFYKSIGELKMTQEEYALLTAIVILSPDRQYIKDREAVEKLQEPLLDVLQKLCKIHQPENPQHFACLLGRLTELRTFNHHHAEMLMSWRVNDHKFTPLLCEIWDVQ
human Farnesoid X receptor ligand-binding domain/Gal4 DNA binding domain chimera, sequence (P04386 1-147 partner): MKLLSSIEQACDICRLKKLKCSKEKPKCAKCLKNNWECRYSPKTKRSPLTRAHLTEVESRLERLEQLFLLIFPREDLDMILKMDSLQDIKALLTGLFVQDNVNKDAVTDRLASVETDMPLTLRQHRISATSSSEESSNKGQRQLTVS
Description: FXR activation was measured using a cell line and procedure obtained from Life Technologies (Cat # K1691). FXR-UAS-bla HEK 293T cells contain a human Farnesoid X receptor ligand-binding domain/Gal4 DNA binding domain chimera stably integrated into the CellSensor® UAS-bla HEK 293T cell line. The CellSensor® UAS-bla HEK 293T contains a beta-lactamase reporter gene under control of a UAS response element stably integrated into HEK 293T cells. Activation of FXR by bound ligands results in transcriptional activation of the beta-lactamase reporter gene, which is detected via assay of beta-lactamase activity.
Cells are harvested and diluted into assay medium containing phenol red-free DMEM supplemented with 2% Charcoal-stripped FBS, pyruvate, non-essential amino acids. Cells are then transferred to a 384 well assay plate. Test compounds are dissolved in DMSO and a 3-fold serial dilution series is generated, then further diluted into assay medium. Compounds in assay medium are added to cells in the 384 well plate and allowed to incubate 16 h at 37 C in the presence of 5% CO2.
A FRET-based […] is loaded into cells as its acetomethoxy ester. Intracellular esterases liberate free CCF4, a cephalosporin core linking 7-hydroxycoumarin to fluorescein. In the presence of beta-lactamase activity produced in the presence of FXR agonists, cleavage of CCF4 spatially separates the two dyes and disrupts FRET, so that exciting the coumarin at 409 nm now produces a blue fluorescence signal at 447 nm. The change in FRET signal is plotted against the test compound concentration and fit to a 3-parameter logistical equation. The concentration required to produce 50% activation is expressed as pEC50 (−log EC50), and the extent of activation is expressed relative to GW4064 as % activation.

[2] = molecular target: ligand binding domain of human FXR (Homo sapiens (Human), UniProt Q96RI1); assay: FXR ligand binding assay (LanthaScreen TR-FRET, SRC2-2 peptide recruitment); details: for pEC50: -log EC50, concentration required to produce 50% activation; for Emax: extent of activation relative to GW4064, read-out: % Efficacy
ligand binding domain of human FXR, sequence (Q96RI1 262-486): as the sequence (Q96RI1 262-486, stated change not applied) above

CCCS(=O)(=O)NC(=O)c1cc(F)c2nc(N3C[C@@H]4C[C@H]3C[C@H]4OC(=O)c3c(-c4c(Cl)cccc4Cl)noc3C3CC3)sc2c1 [Compound I-32, (1S,4S,5R)-2-{4-fluoro-6-[(propane-1-sulfonyl)carbamoyl]-1,3-benzothiazol-2-yl}-2-azabicyclo[2.2.1]heptan-5-yl 5-cyclopropyl-3-(2,6-dichlorophenyl)-1,2-oxazole-4-carboxylate]
Emax [1]: 110% | EC50 [1]: 126 nM | pEC50 [2]: 7.6 | Emax [2]: 148%

O=C(NS(=O)(=O)C1CC1)c1cc(F)c2nc(N3C[C@@H]4C[C@H]3C[C@H]4OC(=O)c3c(-c4c(Cl)cccc4Cl)noc3C3CC3)sc2c1 [Compound I-33, (1S,4S,5R)-2-{6-[(cyclopropanesulfonyl)carbamoyl]-4-fluoro-1,3-benzothiazol-2-yl}-2-azabicyclo[2.2.1]heptan-5-yl 5-cyclopropyl-3-(2,6-dichlorophenyl)-1,2-oxazole-4-carboxylate]
Emax [1]: 112% | EC50 [1]: 126 nM | pEC50 [2]: 7.6 | Emax [2]: 136%

O=C(O)c1cc(F)c2nc(N3C[C@@H]4C[C@H]3C[C@@H]4OC(=O)c3c(-c4c(Cl)cccc4Cl)noc3C3CC3)sc2c1 [Compound I-34, 2-[(1S,4S,5S)-5-[5-cyclopropyl-3-(2,6-dichlorophenyl)-1,2-oxazole-4-carbonyloxy]-2-azabicyclo[2.2.1]heptan-2-yl]-4-fluoro-1,3-benzothiazole-6-carboxylic Acid]
Emax [1]: 15% | EC50 [1]: 398 nM | pEC50 [2]: >4.5

O=C(O)c1ccc2nc(N3C[C@@H]4C[C@H]3C[C@@H]4OC(=O)c3c(-c4c(Cl)cccc4Cl)noc3C3CC3)sc2c1 [Compound I-35, 2-[(1S,4S,5S)-5-[5-cyclopropyl-3-(2,6-dichlorophenyl)-1,2-oxazole-4-carbonyloxy]-2-azabicyclo[2.2.1]heptan-2-yl]-1,3-benzothiazole-6-carboxylic Acid]
Emax [1]: 19% | EC50 [1]: 631 nM | pEC50 [2]: >4.5

COC(=O)c1cc(F)c2nc(N3C[C@@H]4C[C@H]3C[C@@H]4OCc3c(-c4c(Cl)cccc4Cl)noc3C3CC3)sc2c1 [Compound I-36, Methyl 2-[(1S,4S,5S)-5-{[5-cyclopropyl-3-(2,6-dichlorophenyl)-1,2-oxazol-4-yl]methoxy}-2-azabicyclo[2.2.1]heptan-2-yl]-4-fluoro-1,3-benzothiazole-6-carboxylate]
Emax [1]: 50% | EC50 [1]: 6310 nM | pEC50 [2]: 5.4 | Emax [2]: 86%

O=C(O)c1cc(F)c2nc(N3C[C@@H]4C[C@H]3C[C@@H]4OCc3c(-c4c(Cl)cccc4Cl)noc3C3CC3)sc2c1 [Compound I-37, 2-[(1S,4S,5S)-5-{[5-cyclopropyl-3-(2,6-dichlorophenyl)-1,2-oxazol-4-yl]methoxy}-2-azabicyclo[2.2.1]heptan-2-yl]-4-fluoro-1,3-benzothiazole-6-carboxylic Acid]
Emax [1]: 82% | EC50 [1]: 1580 nM | pEC50 [2]: >4.5 | Emax [2]: 0%

O=C(O)c1cc(F)c2nc(N3C[C@H]4C[C@@H]3C[C@@H]4OC(=O)c3c(-c4c(Cl)cccc4Cl)noc3C3CC3)sc2c1 [Compound I-38, 2-[(1R,4R,5S)-5-[5-cyclopropyl-3-(2,6-dichlorophenyl)-1,2-oxazole-4-carbonyloxy]-2-azabicyclo[2.2.1]heptan-2-yl]-4-fluoro-1,3-benzothiazole-6-carboxylic Acid]
Emax [1]: 96% | EC50 [1]: 200 nM | pEC50 [2]: 6.3 | Emax [2]: 56%

O=C(O)c1cc(F)c2nc(N3C[C@H]4C[C@@H]3C[C@@H]4OCc3c(-c4c(Cl)cccc4Cl)noc3C3CC3)sc2c1 [Compound I-39, 2-[(1R,4R,5S)-5-{[5-cyclopropyl-3-(2,6-dichlorophenyl)-1,2-oxazol-4-yl]methoxy}-2-azabicyclo[2.2.1]heptan-2-yl]-4-fluoro-1,3-benzothiazole-6-carboxylic Acid]
Emax [1]: 105% | EC50 [1]: 50.1 nM | pEC50 [2]: 7.8 | Emax [2]: 96%

O=C(O)c1cc(F)c2nc(N3C[C@H]4C[C@@H]3C[C@H]4OC(=O)c3c(-c4c(Cl)cccc4Cl)noc3C3CC3)sc2c1 [Compound I-40, 2-[(1R,4R,5R)-5-[5-cyclopropyl-3-(2,6-dichlorophenyl)-1,2-oxazole-4-carbonyloxy]-2-azabicyclo[2.2.1]heptan-2-yl]-4-fluoro-1,3-benzothiazole-6-carboxylic Acid]
EC50 [1]: < 31600 nM | pEC50 [2]: >4.5

O=C(O)c1cc(F)c2nc(N3C[C@H]4C[C@@H]3C[C@H]4OCc3c(-c4c(Cl)cccc4Cl)noc3C3CC3)sc2c1 [Compound I-41, 2-[(1R,4R,5R)-5-{[5-cyclopropyl-3-(2,6-dichlorophenyl)-1,2-oxazol-4-yl]methoxy}-2-azabicyclo[2.2.1]heptan-2-yl]-4-fluoro-1,3-benzothiazole-6-carboxylic Acid]
Emax [1]: 40% | EC50 [1]: 2510 nM | pEC50 [2]: >4.5

O=C(O)c1ccc(N2C[C@@H]3C[C@H]2C[C@H]3OC(=O)c2c(-c3c(Cl)cccc3Cl)noc2C2CC2)cc1 [Compound I-42, 4-[(1S,4S,5R)-5-[5-cyclopropyl-3-(2,6-dichlorophenyl)-1,2-oxazole-4-carbonyloxy]-2-azabicyclo[2.2.1]heptan-2-yl]benzoic Acid]
Emax [1]: 110% | EC50 [1]: 39.8 nM | pEC50 [2]: 7.6 | Emax [2]: 166%

O=C(O)c1ccc(N2C[C@@H]3C[C@H]2C[C@H]3OC(=O)c2c(-c3c(Cl)cccc3Cl)noc2C2CC2)c(F)c1 [Compound I-43, 4-[(1S,4S,5R)-5-[5-cyclopropyl-3-(2,6-dichlorophenyl)-1,2-oxazole-4-carbonyloxy]-2-azabicyclo[2.2.1]heptan-2-yl]-3-fluorobenzoic Acid]
Emax [1]: 124% | EC50 [1]: 6.31 nM | pEC50 [2]: 7.8 | Emax [2]: 176%

O=C(O)c1ccc(N2C[C@@H]3C[C@H]2C[C@H]3OC(=O)c2c(-c3c(Cl)cccc3Cl)noc2C2(F)CC2)c(F)c1 [Compound I-44, 4-[(1S,4S,5R)-5-[3-(2,6-dichlorophenyl)-5-(1-fluorocyclopropyl)-1,2-oxazole-4-carbonyloxy]-2-azabicyclo[2.2.1]heptan-2-yl]-3-fluorobenzoic Acid]
Emax [1]: 107% | EC50 [1]: 10 nM | pEC50 [2]: 7.6 | Emax [2]: 152%

CS(=O)(=O)NC(=O)c1ccc(N2C[C@@H]3C[C@H]2C[C@H]3OC(=O)c2c(-c3c(Cl)cccc3Cl)noc2C2CC2)cc1 [Compound I-45, (1S,4S,5R)-2-[4-(methanesulfonylcarbamoyl)phenyl]-2-azabicyclo[2.2.1]heptan-5-yl 5-cyclopropyl-3-(2,6-dichlorophenyl)-1,2-oxazole-4-carboxylate]
Emax [1]: 107% | EC50 [1]: 25.1 nM | pEC50 [2]: 7.5 | Emax [2]: 152%

CCCS(=O)(=O)NC(=O)c1ccc(N2C[C@@H]3C[C@H]2C[C@H]3OC(=O)c2c(-c3c(Cl)cccc3Cl)noc2C2CC2)cc1 [Compound I-46, (1S,4S,5R)-2-{4-[(propane-1-sulfonyl)carbamoyl]phenyl}-2-azabicyclo[2.2.1]heptan-5-yl 5-cyclopropyl-3-(2,6-dichlorophenyl)-1,2-oxazole-4-carboxylate]
Emax [1]: 110% | EC50 [1]: 12.6 nM | pEC50 [2]: 7.9 | Emax [2]: 174%

O=C(NS(=O)(=O)C1CC1)c1ccc(N2C[C@@H]3C[C@H]2C[C@H]3OC(=O)c2c(-c3c(Cl)cccc3Cl)noc2C2CC2)cc1 [Compound I-47, (1S,4S,5R)-2-{4-[(cyclopropanesulfonyl)carbamoyl]phenyl}-2-azabicyclo[2.2.1]heptan-5-yl 5-cyclopropyl-3-(2,6-dichlorophenyl)-1,2-oxazole-4-carboxylate]
Emax [1]: 106% | EC50 [1]: 15.8 nM | pEC50 [2]: 7.8 | Emax [2]: 174%

CS(=O)(=O)NC(=O)c1ccc(N2C[C@@H]3C[C@H]2C[C@H]3OC(=O)c2c(-c3c(Cl)cccc3Cl)noc2C2CC2)c(F)c1 [Compound I-48, (1S,4S,5R)-2-[2-fluoro-4-(methanesulfonylcarbamoyl)phenyl]-2-azabicyclo[2.2.1]heptan-5-yl 5-cyclopropyl-3-(2,6-dichlorophenyl)-1,2-oxazole-4-carboxylate]
Emax [1]: 119% | EC50 [1]: 6.31 nM | pEC50 [2]: 7.6 | Emax [2]: 199%

CCCS(=O)(=O)NC(=O)c1ccc(N2C[C@@H]3C[C@H]2C[C@H]3OC(=O)c2c(-c3c(Cl)cccc3Cl)noc2C2CC2)c(F)c1 [Compound I-49, (1S,4S,5R)-2-{2-fluoro-4-[(propane-1-sulfonyl)carbamoyl]phenyl}-2-azabicyclo[2.2.1]heptan-5-yl 5-cyclopropyl-3-(2,6-dichlorophenyl)-1,2-oxazole-4-carboxylate]
Emax [1]: 118% | EC50 [1]: 3.98 nM | pEC50 [2]: 8 | Emax [2]: 188%
